Measured values reported in the METLIN SMRT retention time set (Domingo-Almenara et al. 2019).

Assay: gradient 5% acetonitrile 3 min, to 50% in 2 min, to 85% in 15 min, held 3 min, 100 µL/min
Details: column: Zorbax Extend-C18 2.1 x 50 mm; eluents: water / acetonitrile, 0.1% formic acid
Procedure, shortened: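 A Zorbax Extend-C18 column (2.1 × 50 mm, 1.8 μm) run at 100 μL/min with water and acetonitrile, both containing 0.1% formic acid, separated mixtures of ~100 pure standards. The HPLC was coupled to a quadrupole time-of-flight mass spectrometer operated in positive and negative ionization mode, with dead and dwell volumes of 40 μL and 900 μL. Each retention time was taken from a computationally picked adduct peak that was then manually inspected.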

CC1(C(=O)NCc2ccc(F)cc2)CCCN(C(=O)NCCc2ccccc2)C1 (centres undefined)
RP-LC retention time: 857 s

CN(CC(=O)Nc1c2c(nc3c1CCC3)CCCC2)Cc1ccccc1
RP-LC retention time: 562 s

COc1cccc(OC(=O)c2cn(CC(C)C)c(=O)c3ccccc23)c1
RP-LC retention time: 1210 s

COc1cc(O)ccc1-c1nc2cccc(C)n2c1Nc1ccccc1C
RP-LC retention time: 667 s

Cn1nc2n(c1=O)CCN(C(=O)c1cc(CN3CCOCC3)on1)CC2
RP-LC retention time: 534 s

O=C(c1ccc(F)c(F)c1)N1CCC2(CC1)N=C(c1ccc(Cl)cc1)NO2
RP-LC retention time: 920 s

CNC(=O)c1c(F)cccc1Nc1nc(Nc2cc3c(cc2OC)CCN3C(=O)CN(C)C)nc2[nH]ccc12
RP-LC retention time: 652 s

CCCN1CCN(CCCNC(=O)c2c(-c3ccc(Br)s3)noc2C)CC1
RP-LC retention time: 609 s

COc1ccc(CNC(=O)C2CCCN(c3nccnc3Sc3ccccc3)C2)cc1OC (centres undefined)
RP-LC retention time: 1120 s

O=C(NCc1ccco1)C1CCCN(C(=O)c2cccn2-c2cccnc2)C1 (centres undefined)
RP-LC retention time: 600 s

Cc1ccc(NC(=O)c2cnn3c2CCCC3)cc1
RP-LC retention time: 770 s

CC(Cc1ccco1)NC(=O)C1CCN(S(=O)(=O)c2ccc3c(c2)sc(=O)n3C(C)C)CC1 (centres undefined)
RP-LC retention time: 920 s

COc1ccc(Br)cc1CNC(=O)C1CCCN(c2ccc(N3CCOCC3)nn2)C1 (centres undefined)
RP-LC retention time: 668 s

Cc1nn(Cc2nc(-c3ccc(NC(=O)C4CCCCC4)cc3)oc2C)c(C)c1C
RP-LC retention time: 1020 s

O=C(c1ccc(N2CCOCC2)nn1)N1CCN(c2ncccn2)CC1
RP-LC retention time: 586 s

CCn1c(N2CCC(C(=O)NC3CCCCC3)CC2)cc(=O)n(C)c1=O
RP-LC retention time: 784 s

N#Cc1cc(NC(=O)Cc2nnc(-c3ccc4ncccc4c3)o2)ccc1F
RP-LC retention time: 720 s

CC(C)(C)N(C(=O)c1ccccc1[N+](=O)[O-])C(=O)N1CCCCC1
RP-LC retention time: 828 s

CCOC(=O)CNC(=O)C1CC(=O)N(CCc2c[nH]c3ccc(F)cc23)C1 (centres undefined)
RP-LC retention time: 962 s

COc1ccc(C2CN(S(=O)(=O)c3ccccc3F)CCN2C)cc1 (centres undefined)
RP-LC retention time: 670 s

CCN(C(=O)CN1C(=O)NC(c2ccc(Cl)cc2)C2=C1COC2=O)c1ccccc1 (centres undefined)
RP-LC retention time: 834 s

Cc1ccn2c(NC(=O)CC(C)(C)C)c(-c3ccccc3)nc2c1
RP-LC retention time: 666 s

O=C(CN1C(=O)CC(c2ccccc2)S(=O)(=O)c2ccccc21)Nc1ccccc1F (centres undefined)
RP-LC retention time: 871 s

O=C(Nc1ccccc1)N1CC(n2ccnc2)C1
RP-LC retention time: 569 s

O=C(NCc1ccc2c(c1)OCO2)C1=C2CCCN2c2ccccc2S1(=O)=O
RP-LC retention time: 805 s

CCN1CCN(c2ccc(-c3ccc(OC)c(S(=O)(=O)N4CCOCC4)c3)nn2)CC1
RP-LC retention time: 585 s

Cc1cnc(-c2ccncc2)n1CC1CCN(S(=O)(=O)c2ccc3c(c2)OCCO3)C1 (centres undefined)
RP-LC retention time: 626 s

CC1CCCN(c2ccn3c(=O)n(CC(=O)Nc4cccc(Cl)c4)nc3n2)C1 (centres undefined)
RP-LC retention time: 835 s

CCOc1ccc(-c2noc(Cc3nnc(-c4cccc(F)c4)o3)n2)cc1
RP-LC retention time: 1090 s

CC1(C(=O)NC2CCCCCCC2)CN(S(C)(=O)=O)CC(=O)N1c1ccc(Cl)cc1 (centres undefined)
RP-LC retention time: 952 s

CC(C)c1nnc(C2CN(C)CC23CCN(Cc2cccc(C(F)(F)F)c2)CC3)o1 (centres undefined)
RP-LC retention time: 578 s

CCOC(=O)c1cccc(Nc2ncccc2S(N)(=O)=O)c1
RP-LC retention time: 854 s

CNC(=O)c1cn(-c2ccc(-c3nc(C(C)(C)C)no3)cn2)cn1
RP-LC retention time: 806 s

CC1CCN(S(=O)(=O)c2cc(C(=O)N3CCN(c4ccc(Cl)cc4)CC3)n(C)c2)CC1
RP-LC retention time: 1100 s

Cc1ccn2c(Nc3ccc4c(c3)OCCO4)c(-c3ccc(N(C)C)cc3)nc2c1
RP-LC retention time: 734 s

CC(C)c1noc(COC2CCCN(C(=O)NCc3ccco3)C2)n1 (centres undefined)
RP-LC retention time: 774 s

CCN(Cc1ccc(C)cc1)Cc1cc(=O)n2cc(Cl)ccc2n1
RP-LC retention time: 652 s

COc1cc(OC)cc(C(=O)N(C)CCc2noc(C3CCCCC3)n2)c1
RP-LC retention time: 926 s

Cc1ccc(NC(=O)C2CCc3sc(C(=O)N(C)C)cc3C2)c(C)c1 (centres undefined)
RP-LC retention time: 799 s

Cc1ccc2nc(NC(=O)C3CC(=O)N(c4n[nH]c5cccc(F)c45)C3)sc2c1 (centres undefined)
RP-LC retention time: 812 s

O=C(Nc1ccccc1)C1CCCN(S(=O)(=O)c2cc(-c3noc(C4CCCC4)n3)cs2)C1 (centres undefined)
RP-LC retention time: 1220 s

COCc1c(C(=O)N2CCC3(CCC3O)CC2)noc1C (centres undefined)
RP-LC retention time: 618 s

Cc1ccc(-c2nc(-c3cccc(-c4ccn[nH]4)c3)no2)cc1
RP-LC retention time: 1090 s

O=C(NCc1cc(F)cc(F)c1)C1CC(=O)N(c2ccc3c(c2)CCN3C(=O)C2CC2)C1 (centres undefined)
RP-LC retention time: 767 s
